The text below walks through data of publication PMC8325676, “The tea plant CsLHT1 and CsLHT6 transporters take up amino acids, as a nitrogen source, from the soil of organic tea plantations” (Horticulture Research, 2021).

The subject of one series is CsLHT1. The settings on record: 10-500 µM 15N-Glu, 10 min, 30°C; labelled compound.
Substrate in series [1]: N[C@@H](CCC(=O)O)C(=O)O
The experiment in a line: cells, lysate or membranes. Conditions: 0.5-20 mM 15N-Glu, 10 min, 30°C, labelled compound. The series is classed as cell-based, Camellia sinensis.

In the case of `N[C@@H](CCC(=O)O)C(=O)O` [15N-Glu], in the series on CsLHT1, the Km came to 39.9 µM.

B1: CsLHT6 (Camellia sinensis) (protein)
chain: MVSNSPPAPKEVPTEEDQWTEKGPPREAKWWYSTFHTVTAMVGAGVLSLPYAMAYLGWGPGTMLLVFSWCITLNTMWQMIQLHECVPGVRFDHYYDLGRHAFGPKLGPWIVLPQQLIVQVGCDIVYMVTGGKCLKKFMEIVCTNCTRIKQSYWICIFGSTHFFLSQLPNFNSVSGVSLAAAIMSLSYSTIAWVGCLSKGRVENVSYAYKKTSGADSMFRVFNALGEITFAYAGHAVVLEIQATVPSTPEMPSKVPMWKGAVWAYFINAICYFPVALIGYWAFGQDVADNVLVALERPSWLIAAANLMVVIHVIGSYQVYAMPVFDLLEKAMVKRLSFPPGIGLRIIVRSAYVAFTLFVGVTFPFFGDLLGFFGGFGFAPTSYFLPSIIWLIIKKPKRFSISWFINWACIYIGVFVMLASTIGGLRNIVIDSSTYEFYS
notes: cloned from root cDNA
Consider B1, for which, in series [1], the Km came out at 2500 µM.
